How the values were obtained:
Format in all cases: biochemical
Design in all cases: key: Good response: Constructs with very clear and robust spectra separation; Poor response: those with noticeable but small spectra separation; No response: those having no spectra separation
[1] = target: T1, Thermus aquaticus T-Rex FRET fusion, initial construct #3, mKOk-Rex(78-211)-Rex(78-189)-cpmEGFP(145/146)-Rex(190-211), SEQ ID NO: 163 (Thermus aquaticus, UniProt Q9X2V5, INS189[…]); experiment: FRET response (emission spectra) of purified initial construct #3 in absence or presence of 40 uM NADH
T1 construct: His-tag purified from E. coli
Protocol: (§1) 16 initial FRET constructs (See Table 3) were constructed using expression vector pET28c with a T7 promoter and lac operator and expressed in E. coli. Cells were collected and lysed using a commercially-available lysis buffer. Proteins of interest were isolated from the lysates using Ni-NTA magnetic beads. Eluted proteins were subjected to buffer exchange and final protein concentrating. To test performance of the initial FRET constructs, their emission spectra was recorded on a plate reader in absence or presence of 40 uM NADH. Resulting emission spectra with or without the ligand were normalized and overlaid for each construct. Constructs with very clear and robust spectra separation were labeled as having “good response”, those with noticeable but small spectra separation were labeled as having “poor response”, and finally those having no spectra separation were labeled as having “no response”.

[2] = target: Thermus aquaticus T-Rex FRET fusion, initial construct #14, Rex(A)-mEGFP-Rex(B)-mKOk, SEQ ID NO: 174 (Thermus aquaticus, UniProt Q9X2V5, E116G/F189I/K117M/K204T/K47E/R46D/R58D/S30A/Y98W); experiment: FRET response (emission spectra) of purified initial construct #14 in absence or presence of 40 uM NADH
Protocol: as §1

[3] = target: T2, Thermus aquaticus T-Rex FRET fusion, initial construct #6, Rex(78-189)-cpmEGFP(173/174)-Rex(190-211)-Rex(78-211)-mKOk, SEQ ID NO: 166 (Thermus aquaticus, UniProt Q9X2V5, INS189[…]); experiment: FRET response (emission spectra) of purified initial construct #6 in absence or presence of 40 uM NADH
T2 construct: His-tag purified from E. coli
Protocol: as §1

[4] = target: T3, Thermus aquaticus T-Rex FRET fusion, initial construct #7, mKOk-Rex(78-211)-Rex(78-189)-cpmEGFP(173/174)-Rex(190-211), SEQ ID NO: 167 (Thermus aquaticus, UniProt Q9X2V5, INS189[…]); experiment: FRET response (emission spectra) of purified initial construct #7 in absence or presence of 40 uM NADH
T3 construct: His-tag purified from E. coli
Protocol: as §1

[5] = target: Thermus aquaticus T-Rex FRET fusion, initial construct #16, Rex(A)-mKOk-Rex(B)-mEGFP, SEQ ID NO: 176 (Thermus aquaticus, UniProt Q9X2V5, E116G/F189I/K117M/K204T/K47E/R46D/R58D/S30A/Y98W); experiment: FRET response (emission spectra) of purified initial construct #16 in absence or presence of 40 uM NADH
Protocol: as §1

[6] = target: Thermus aquaticus T-Rex FRET fusion, initial construct #13, mKOk-Rex(A)-mEGFP-Rex(B), SEQ ID NO: 173 (Thermus aquaticus, UniProt Q9X2V5, E116G/F189I/K117M/K204T/K47E/R46D/R58D/S30A/Y98W); experiment: FRET response (emission spectra) of purified initial construct #13 in absence or presence of 40 uM NADH
Protocol: as §1

[7] = target: Thermus aquaticus T-Rex FRET fusion, initial construct #15, mEGFP-Rex(A)-mKOk-Rex(B), SEQ ID NO: 175 (Thermus aquaticus, UniProt Q9X2V5, E116G/F189I/K117M/K204T/K47E/R46D/R58D/S30A/Y98W); experiment: FRET response (emission spectra) of purified initial construct #15 in absence or presence of 40 uM NADH
Protocol: as §1

[8] = target: Thermus aquaticus T-Rex FRET fusion, initial construct #11, mKOk-Rex(A)-cpmEGFP(173/174)-Rex(B), SEQ ID NO: 171 (Thermus aquaticus, UniProt Q9X2V5, E116G/F189I/K117M/K204T/K47E/R46D/R58D/S30A/Y98W); experiment: FRET response (emission spectra) of purified initial construct #11 in absence or presence of 40 uM NADH
Protocol: as §1

[9] = target: T4, Thermus aquaticus T-Rex FRET fusion, initial construct #2, Rex(78-189)-cpmEGFP(145/146)-Rex(190-211)-Rex(78-211)-mKOk, SEQ ID NO: 162 (Thermus aquaticus, UniProt Q9X2V5, INS189[…]); experiment: FRET response (emission spectra) of purified initial construct #2 in absence or presence of 40 uM NADH
T4 construct: His-tag purified from E. coli
Protocol: as §1

[10] = target: T5, Thermus aquaticus T-Rex FRET fusion, initial construct #5, mKOk-Rex(78-189)-cpmEGFP(173/174)-Rex(190-211)-Rex(78-211), SEQ ID NO: 165 (Thermus aquaticus, UniProt Q9X2V5, INS189[…]); experiment: FRET response (emission spectra) of purified initial construct #5 in absence or presence of 40 uM NADH
T5 construct: His-tag purified from E. coli
Protocol: as §1

[11] = target: Thermus aquaticus T-Rex FRET fusion, initial construct #12, Rex(A)-cpmEGFP(173/174)-Rex(B)-mKOk, SEQ ID NO: 172 (Thermus aquaticus, UniProt Q9X2V5, E116G/F189I/K117M/K204T/K47E/R46D/R58D/S30A/Y98W); experiment: FRET response (emission spectra) of purified initial construct #12 in absence or presence of 40 uM NADH
Protocol: as §1

[12] = target: T6, Thermus aquaticus T-Rex FRET fusion, initial construct #4, Rex(78-211)-Rex(78-189)-cpmEGFP(145/146)-Rex(190-211)-mKOk, SEQ ID NO: 164 (Thermus aquaticus, UniProt Q9X2V5, INS189[…]); experiment: FRET response (emission spectra) of purified initial construct #4 in absence or presence of 40 uM NADH
T6 construct: His-tag purified from E. coli
Protocol: as §1

For `NC(=O)C1=CN([C@@H]2O[C@H](COP(=O)(O)OP(=O)(O)OC[C@H]3O[C@@H](n4cnc5c(N)ncnc54)[C@H](O)[C@@H]3O)[C@@H](O)[C@H]2O)C=CC1` [NADH], the “FRET response to NADH” value [1] was “No response”, the “FRET response to NADH” value [2] was “Good response” and the “FRET response to NADH” value [3] was “No response”. For the same compound, the “FRET response to NADH” value [4] was “No response”, the “FRET response to NADH” value [5] was “Good response” and the “FRET response to NADH” value [6] was “Poor response”. For the same compound, the “FRET response to NADH” value [7] was “No response”, the “FRET response to NADH” value [8] was “Poor response” and the “FRET response to NADH” value [9] was “Poor response”. For the same compound, the “FRET response to NADH” value [10] was “No response”, the “FRET response to NADH” value [11] was “Good response” and the “FRET response to NADH” value [12] was “No response”.
